Experimental data from PMC5218480 (PLoS ONE, 2017).

Test system: MV-4-11 cells
Experiment: Gene expression microarray analysis (Affymetrix PrimeView) and GSEA
Type: cell-based, human
Set-up: RFU PODN (11730768_x_at) / Fold change /veh PODN (11730768_x_at) / RFU LINC00158 (11744669_a_at) / Fold change /veh LINC00158 (11744669_a_at) / RFU DUSP10 (11751237_a_at) / Fold change /veh DUSP10 (11751237_a_at) / RFU ID3 (11757404_x_at) / Fold change /veh ID3 (11757404_x_at) / RFU PLEKHG5 (11737974_s_at) / Fold change /veh PLEKHG5 (11737974_s_at) / RFU LRRC4B (11730491_at) / Fold change /veh LRRC4B (11730491_at) / RFU GIMAP4 (11747438_a_at) / Fold change /veh GIMAP4 (11747438_a_at) / RFU KRT8 (11758183_x_at) / Fold change /veh KRT8 (11758183_x_at) / RFU CNN1 (11734310_a_at) / Fold change /veh CNN1 (11734310_a_at) / RFU VPS37D (11726825_at) / Fold change /veh VPS37D (11726825_at) / RFU C10orf10 (11716522_x_at) / Fold change /veh C10orf10 (11716522_x_at) / RFU KIR2DL2 /// KIR2DL4 /// KIR2DL5A /// KIR2DL5B /// KIR2DS1 /// KIR2DS2 /// KIR2DS3 /// KIR2DS4 /// KIR3DL3 /// KIR3DL3 /// KIR3DS1 (11738374_at) / Fold change /veh KIR2DL2 /// KIR2DL4 /// KIR2DL5A /// KIR2DL5B /// KIR2DS1 /// KIR2DS2 /// KIR2DS3 /// KIR2DS4 /// KIR3DL3 /// KIR3DL3 /// KIR3DS1 (11738374_at) / RFU C1QL1 (11718748_at) / Fold change /veh C1QL1 (11718748_at) / RFU TMPRSS4 (11747572_a_at) / Fold change /veh TMPRSS4 (11747572_a_at) / RFU HAMP (11756126_x_at) / Fold change /veh HAMP (11756126_x_at) / RFU RNFT2 (11725882_a_at) / Fold change /veh RNFT2 (11725882_a_at) / RFU NR4A2 (11747474_a_at) / Fold change /veh NR4A2 (11747474_a_at) / RFU ABCC12 (11746883_a_at) / Fold change /veh ABCC12 (11746883_a_at) / RFU TMEM136 (11760407_x_at) / Fold change /veh TMEM136 (11760407_x_at) / RFU CLDN22 /// WWC2 (11732394_at) / Fold change /veh CLDN22 /// WWC2 (11732394_at) / RFU HLA-DPB1 (11760878_x_at) / Fold change /veh HLA-DPB1 (11760878_x_at) / RFU SPINT1 (11716480_a_at) / Fold change /veh SPINT1 (11716480_a_at) / RFU GAP43 (11754022_s_at) / Fold change /veh GAP43 (11754022_s_at) / RFU A4GNT (11735810_at) / Fold change /veh A4GNT (11735810_at) / RFU PRB3 (11715151_x_at) / Fold change /veh PRB3 (11715151_x_at) / RFU TUBB4B (11761932_at) / Fold change /veh TUBB4B (11761932_at) / RFU CAPN14 (11732068_a_at) / Fold change /veh CAPN14 (11732068_a_at) / RFU TMCC2 (11721928_a_at) / Fold change /veh TMCC2 (11721928_a_at) / RFU IRGQ (11745062_a_at) / Fold change /veh IRGQ (11745062_a_at) / RFU FAM174B (11720279_a_at) / Fold change /veh FAM174B (11720279_a_at) / RFU TMPRSS4 (11748680_a_at) / Fold change /veh TMPRSS4 (11748680_a_at) / RFU FAM212B (11763350_a_at) / Fold change /veh FAM212B (11763350_a_at) / RFU PLEKHG5 (11743358_a_at) / Fold change /veh PLEKHG5 (11743358_a_at) / RFU ZSCAN30 (11745921_a_at) / Fold change /veh ZSCAN30 (11745921_a_at) / RFU CMKLR1 (11741424_a_at) / Fold change /veh CMKLR1 (11741424_a_at) / RFU LOC101060620 /// MAPK8IP1 (11723275_at) / Fold change /veh LOC101060620 /// MAPK8IP1 (11723275_at) / RFU SPTSSB (11747773_x_at) / Fold change /veh SPTSSB (11747773_x_at) / RFU PRSS12 (11739890_at) / Fold change /veh PRSS12 (11739890_at) / RFU BIN1 (11741810_x_at) / Fold change /veh BIN1 (11741810_x_at) / RFU WNT11 (11732464_a_at) / Fold change /veh WNT11 (11732464_a_at) / RFU C10orf10 (11716521_a_at) / Fold change /veh C10orf10 (11716521_a_at) / RFU C5orf56 (11738089_at) / Fold change /veh C5orf56 (11738089_at) / RFU CYB561 (11721691_x_at) / Fold change /veh CYB561 (11721691_x_at) / RFU ANKRD19P (11752326_a_at) / Fold change /veh ANKRD19P (11752326_a_at) / RFU OR2T12 /// OR2T33 /// OR2T8 (11738714_s_at) / Fold change /veh OR2T12 /// OR2T33 /// OR2T8 (11738714_s_at) / RFU VCAN (11748164_a_at) / Fold change /veh VCAN (11748164_a_at) / RFU JSRP1 (11732532_at) / Fold change /veh JSRP1 (11732532_at) / RFU KRTAP10-11 (11738290_x_at) / Fold change /veh KRTAP10-11 (11738290_x_at) / RFU MYO3A (11730013_a_at) / Fold change /veh MYO3A (11730013_a_at) / RFU EBF3 (11725865_a_at) / Fold change /veh EBF3 (11725865_a_at) / RFU CAMK2N1 (11719241_x_at) / Fold change /veh CAMK2N1 (11719241_x_at) / RFU C5orf56 (11738088_a_at) / Fold change /veh C5orf56 (11738088_a_at) / RFU OLFML3 (11715873_a_at) / Fold change /veh OLFML3 (11715873_a_at) / RFU LOC100653217 /// NTM (11731650_a_at) / Fold change /veh LOC100653217 /// NTM (11731650_a_at) / RFU MAPK11 (11762145_a_at) / Fold change /veh MAPK11 (11762145_a_at) / RFU FIZ1 (11724087_x_at) / Fold change /veh FIZ1 (11724087_x_at) / RFU OASL (11726364_x_at) / Fold change /veh OASL (11726364_x_at) / RFU SOX15 (11748057_x_at) / Fold change /veh SOX15 (11748057_x_at) / RFU CD79A (11719716_a_at) / Fold change /veh CD79A (11719716_a_at) / RFU HIST1H1D (11736915_at) / Fold change /veh HIST1H1D (11736915_at) / RFU CASKIN2 (11723855_a_at) / Fold change /veh CASKIN2 (11723855_a_at) / RFU LOC730098 (11760151_x_at) / Fold change /veh LOC730098 (11760151_x_at) / RFU OR4N2 (11742367_at) / Fold change /veh OR4N2 (11742367_at) / RFU PRRT2 (11749266_a_at) / Fold change /veh PRRT2 (11749266_a_at) / RFU SNX32 (11753110_a_at) / Fold change /veh SNX32 (11753110_a_at) / RFU CDHR5 (11726645_a_at) / Fold change /veh CDHR5 (11726645_a_at) / RFU RCAN1 (11760418_a_at) / Fold change /veh RCAN1 (11760418_a_at) / RFU FAM167A (11723789_a_at) / Fold change /veh FAM167A (11723789_a_at) / RFU FAM26E (11764081_at) / Fold change /veh FAM26E (11764081_at) / RFU ISYNA1 (11749810_s_at) / Fold change /veh ISYNA1 (11749810_s_at) / RFU ACY1 (11761880_at) / Fold change /veh ACY1 (11761880_at) / RFU 11764098_at / Fold change /veh 11764098_at / RFU SAMD14 (11745864_x_at) / Fold change /veh SAMD14 (11745864_x_at) / RFU NPB (11741838_a_at) / Fold change /veh NPB (11741838_a_at) / RFU TMPRSS6 (11731388_a_at) / Fold change /veh TMPRSS6 (11731388_a_at) / RFU KRTAP10-2 (11738614_at) / Fold change /veh KRTAP10-2 (11738614_at) / RFU ARHGAP8 /// PRR5-ARHGAP8 (11727945_x_at) / Fold change /veh ARHGAP8 /// PRR5-ARHGAP8 (11727945_x_at) / RFU KRTAP5-7 /// NADSYN1 (11734609_at) / Fold change /veh KRTAP5-7 /// NADSYN1 (11734609_at) / RFU RASL12 (11751679_a_at) / Fold change /veh RASL12 (11751679_a_at) / RFU CDKN2B (11736163_a_at) / Fold change /veh CDKN2B (11736163_a_at) / RFU PRF1 (11729649_at) / Fold change /veh PRF1 (11729649_at) / RFU, ZNF638 /// ZNF638-IT1 / Fold change vs veh, ZNF638 /// ZNF638-IT1 / RFU, PANK3 / Fold change vs veh, PANK3 / RFU, SH3YL1 / Fold change vs veh, SH3YL1 / RFU, ZEB2 / Fold change vs veh, ZEB2 / RFU, NRIP1 / Fold change vs veh, NRIP1 / RFU, PTTG1IP / Fold change vs veh, PTTG1IP / RFU, CAPN2 / Fold change vs veh, CAPN2 / RFU, MED14 / Fold change vs veh, MED14 / RFU, SNORA58 / Fold change vs veh, SNORA58 / RFU, C1orf63 / Fold change vs veh, C1orf63 / RFU, LRRFIP1 / Fold change vs veh, LRRFIP1 / RFU, NDUFAF7 / Fold change vs veh, NDUFAF7 / RFU, SLC12A2 / Fold change vs veh, SLC12A2 / RFU, IBTK / Fold change vs veh, IBTK / RFU, ESF1 / Fold change vs veh, ESF1 / Fold change vs veh, TMEM50B / RFU, TAOK1 / Fold change vs veh, TAOK1 / RFU, ACBD3 / Fold change vs veh, ACBD3 / RFU, TMA16 / Fold change vs veh, TMA16 / RFU, RWDD3 / Fold change vs veh, RWDD3 / RFU, BCAT1 / Fold change vs veh, BCAT1 / RFU, EDEM3 / Fold change vs veh, EDEM3 / RFU, TMEM33 / Fold change vs veh, TMEM33 / RFU, WDR75 / Fold change vs veh, WDR75 / RFU, AHCTF1 / Fold change vs veh, AHCTF1 / RFU, TFRC / Fold change vs veh, TFRC / RFU, ZDHHC17 / Fold change vs veh, ZDHHC17 / RFU, NOM1 / Fold change vs veh, NOM1 / RFU, ARL8B / Fold change vs veh, ARL8B / RFU, ZBTB11 / Fold change vs veh, ZBTB11 / RFU, TAMM41 / Fold change vs veh, TAMM41 / RFU, KIAA1704 /// LOC100996395 / Fold change vs veh, KIAA1704 /// LOC100996395 / RFU, ING1 / Fold change vs veh, ING1 / RFU, TRMT61B / Fold change vs veh, TRMT61B / RFU, FUBP3 / Fold change vs veh, FUBP3 / RFU, TP53 / Fold change vs veh, TP53 / RFU, TNKS2 / Fold change vs veh, TNKS2 / RFU, ZFP14 / Fold change vs veh, ZFP14 / RFU, ACTR2 / Fold change vs veh, ACTR2 / RFU, PPP3R1 / Fold change vs veh, PPP3R1 / RFU, PIK3R1 / Fold change vs veh, PIK3R1 / RFU, HNRNPA1 / Fold change vs veh, HNRNPA1 / RFU, RNF170 / Fold change vs veh, RNF170 / RFU, ZNF28 / Fold change vs veh, ZNF28 / RFU, RNGTT / Fold change vs veh, RNGTT / RFU, OGT / Fold change vs veh, OGT / RFU, BRD1 / Fold change vs veh, BRD1 / RFU, MARS / Fold change vs veh, MARS / RFU, ZNF655 / Fold change vs veh, ZNF655 / RFU, FAHD1 / Fold change vs veh, FAHD1 / RFU, BDP1 / Fold change vs veh, BDP1 / RFU, LRRCC1 / Fold change vs veh, LRRCC1 / RFU, ARID1A / Fold change vs veh, ARID1A / RFU, ZNF146 / Fold change vs veh, ZNF146 / RFU, ZNF330 / Fold change vs veh, ZNF330 / RFU, GPN3 / Fold change vs veh, GPN3 / RFU, C9orf123 / Fold change vs veh, C9orf123 / RFU, N4BP2L2 / Fold change vs veh, N4BP2L2 / RFU, ARFIP1 / Fold change vs veh, ARFIP1 / RFU, FAM179B / Fold change vs veh, FAM179B / RFU, BCL10 / Fold change vs veh, BCL10 / RFU, UHRF1BP1L / Fold change vs veh, UHRF1BP1L / RFU, BET1 / Fold change vs veh, BET1 / RFU, CNOT2 / Fold change vs veh, CNOT2 / RFU, ZNF268 / Fold change vs veh, ZNF268 / Fold change vs veh, ZNF507 / RFU, DGCR2 / Fold change vs veh, DGCR2 / RFU, WDSUB1 / Fold change vs veh, WDSUB1 / Fold change vs veh, HSP90B1 /// MIR3652 / RFU, ADSS / Fold change vs veh, ADSS / RFU, GK / Fold change vs veh, GK / RFU, ZNF148 / Fold change vs veh, ZNF148 / RFU, TAF9 / Fold change vs veh, TAF9 / RFU, SLC1A5 / Fold change vs veh, SLC1A5 / RFU, SLMO2 / Fold change vs veh, SLMO2 / RFU, ABCC4 / Fold change vs veh, ABCC4 / RFU, LOC101060439 /// RAP1B / Fold change vs veh, LOC101060439 /// RAP1B / RFU, RFX7 / Fold change vs veh, RFX7 / RFU, GTPBP10 / Fold change vs veh, GTPBP10 / RFU, CNEP1R1 / Fold change vs veh, CNEP1R1 / RFU, BIVM-ERCC5 /// ERCC5 / Fold change vs veh, BIVM-ERCC5 /// ERCC5 / RFU, ILF3 / Fold change vs veh, ILF3 / RFU 11762660_at / Fold change /veh 11762660_at / RFU VCAN (11757783_s_at) / Fold change /veh VCAN (11757783_s_at) / RFU DDX43 (11728927_at) / Fold change /veh DDX43 (11728927_at) / RFU KRT8 (11758188_x_at) / Fold change /veh KRT8 (11758188_x_at) / RFU NKD1 (11759106_at) / Fold change /veh NKD1 (11759106_at) / RFU SRD5A1 (11742802_a_at) / Fold change /veh SRD5A1 (11742802_a_at) / RFU TPSAB1 /// TPSB2 (11721975_s_at) / Fold change /veh TPSAB1 /// TPSB2 (11721975_s_at) / RFU GSTM3 (11746129_a_at) / Fold change /veh GSTM3 (11746129_a_at) / RFU IL23R (11737362_x_at) / Fold change /veh IL23R (11737362_x_at) / RFU TMEM51 (11727254_a_at) / Fold change /veh TMEM51 (11727254_a_at) / RFU PIWIL2 (11732686_x_at) / Fold change /veh PIWIL2 (11732686_x_at) / RFU ORM1 (11744905_x_at) / Fold change /veh ORM1 (11744905_x_at) / RFU CCDC152 (11743942_at) / Fold change /veh CCDC152 (11743942_at) / RFU ECM1 (11717891_a_at) / Fold change /veh ECM1 (11717891_a_at) / RFU IL23R (11748794_a_at) / Fold change /veh IL23R (11748794_a_at) / RFU TNFAIP8L3 (11732012_x_at) / Fold change /veh TNFAIP8L3 (11732012_x_at) / RFU MBOAT4 (11741988_at) / Fold change /veh MBOAT4 (11741988_at) / RFU 11764193_at / Fold change /veh 11764193_at / RFU TMEM53 (11763286_at) / Fold change /veh TMEM53 (11763286_at) / RFU MAGEB2 (11727129_at) / Fold change /veh MAGEB2 (11727129_at) / RFU TMEM200A (11744735_a_at) / Fold change /veh TMEM200A (11744735_a_at) / RFU CCDC152 (11751479_a_at) / Fold change /veh CCDC152 (11751479_a_at) / RFU FAM211A (11726209_a_at) / Fold change /veh FAM211A (11726209_a_at) / RFU RGS16 (11746705_a_at) / Fold change /veh RGS16 (11746705_a_at) / RFU VCAN (11755009_s_at) / Fold change /veh VCAN (11755009_s_at) / RFU RHOB (11743442_s_at) / Fold change /veh RHOB (11743442_s_at) / RFU RGS16 (11720943_a_at) / Fold change /veh RGS16 (11720943_a_at) / RFU RGS16 (11720944_at) / Fold change /veh RGS16 (11720944_at) / RFU, VPS4B / Fold change vs veh, VPS4B / RFU, CREB1 / Fold change vs veh, CREB1 / RFU, DNAJC13 / Fold change vs veh, DNAJC13 / RFU, GNAQ / Fold change vs veh, GNAQ / RFU, CDK5R1 / Fold change vs veh, CDK5R1 / RFU, ZRANB3 / Fold change vs veh, ZRANB3 / RFU, CUL4A / Fold change vs veh, CUL4A / RFU, CCNY / Fold change vs veh, CCNY / RFU, UFL1 / Fold change vs veh, UFL1 / RFU, COG3 / Fold change vs veh, COG3 / RFU, DIAPH2 / Fold change vs veh, DIAPH2 / RFU, SKA2 / Fold change vs veh, SKA2 / RFU, AFF3 / Fold change vs veh, AFF3 / RFU, LMF1 / Fold change vs veh, LMF1 / RFU, IPO11 / Fold change vs veh, IPO11 / RFU, DFFB / Fold change vs veh, DFFB / RFU, FOXP1 / Fold change vs veh, FOXP1 / RFU, CARD8 / Fold change vs veh, CARD8 / RFU, STRN3 / Fold change vs veh, STRN3 / RFU, ADK / Fold change vs veh, ADK / RFU, RASSF2 / Fold change vs veh, RASSF2 / RFU, WIPF1 / Fold change vs veh, WIPF1 / RFU, LARP1B / Fold change vs veh, LARP1B / RFU, RASA1 / Fold change vs veh, RASA1 / RFU, RB1 / Fold change vs veh, RB1 / RFU, PPFIA1 / Fold change vs veh, PPFIA1 / RFU, MAT2A / Fold change vs veh, MAT2A / RFU, CCT5 / Fold change vs veh, CCT5 / RFU, WDR92 / Fold change vs veh, WDR92 / RFU, CUX1 / Fold change vs veh, CUX1 / RFU, TTC7A / Fold change vs veh, TTC7A / RFU, TMEM135 / Fold change vs veh, TMEM135 / RFU, DEPTOR / Fold change vs veh, DEPTOR / RFU, CPM / Fold change vs veh, CPM / RFU, DNAJB6 / Fold change vs veh, DNAJB6 / RFU, CACNA2D3 / Fold change vs veh, CACNA2D3 / RFU, DTX4 / Fold change vs veh, DTX4 / RFU, TFCP2 / Fold change vs veh, TFCP2 / RFU, GMCL1 /// GMCL1P1 / Fold change vs veh, GMCL1 /// GMCL1P1 / RFU, AEBP2 / Fold change vs veh, AEBP2 / RFU, SNHG1 /// SNORD22 /// SNORD25 /// SNORD26 /// SNORD27 /// SNORD28 /// SNORD29 /// SNORD31 / Fold change vs veh, SNHG1 /// SNORD22 /// SNORD25 /// SNORD26 /// SNORD27 /// SNORD28 /// SNORD29 /// SNORD31 / Fold change (Aza/veh), C12orf56 (ProbeSet 11735607_a_at) / Fold change (ACY-1035/veh), C12orf56 (ProbeSet 11735607_a_at) / Fold change (Aza/veh), FGFR1OP (ProbeSet 11751329_s_at) / Fold change (ACY-1035/veh), FGFR1OP (ProbeSet 11751329_s_at) / Fold change (Aza/veh), VPS36 (ProbeSet 11739960_a_at) / Fold change (ACY-1035/veh), VPS36 (ProbeSet 11739960_a_at) / RFU SYPL1 (11715823_x_at) / Fold change /veh SYPL1 (11715823_x_at) / RFU IGFBP7 (11715501_s_at) / Fold change /veh IGFBP7 (11715501_s_at) / RFU REEP3 (11722064_at) / Fold change /veh REEP3 (11722064_at) / RFU IGLL1 (11728026_x_at) / Fold change /veh IGLL1 (11728026_x_at): dose or concentration left out as unconfirmed
Details: ProbeSet 11732281_s_at; LIST D

## Nc1ncn([C@@H]2O[C@H](CO)[C@@H](O)[C@H]2O)c(=O)n1 [azacitidine]
  RFU, FOXP1: 174.32 RFU
